From patent US11066438B2, “Squalamine solid forms and methods of making the same” (Enterin, Inc., priority 2017, dated 2021)
“Also recorded” adds a separate entry of the source. Read-outs that look alike come from different tables or passages of the source. Values belong to the compound of their own block, whether it stands above or below them.

Tests used:
[1] = Critical water activity for relative form stability: ethanol slurries at 25° C., XRPD; format: physicochemical; conditions: for Final Form by XRPD: ethanol slurry 25° C.; for Water activity levels in ethanol at which the form is the stable form: EtOH slurries, 25° C.
Procedure: For robust isolation of desired squalamine phosphate crystal form, critical water activity in EtOH has been investigated in terms of the relative stability of ENT-01 Forms 1 and 2. The procedure is detailed below.
Nine samples of each Form 1 and Form 2 separately (˜25 mg each) were prepared in scintillation vials. To each vial ½ mL of ethanol with water activity levels from 0.1 to 0.9 were added and the vials were let to condition in a shaker at 25° C. for 2-3 days. Similarly, six mixed samples of Form 1 and 2 were prepared and slurry conditioned at water activity levels of 0.1 to 0.6 in ethanol at 25° C. The wet cakes of each slurry were analyzed by XRPD.
The slurries post conditioning were analyzed by XRPD. […] The XRPD pattern matches that of Form 2.

[2] = Form stability: low (27% RH) and high (70% RH) humidity conditioning, XRPD; format: physicochemical; conditions: 21° C.
Procedure: One sample each of Form 1 and Form 2 on XRPD plates (˜10 mg each) were exposed to 21° C. 27% RH and 21° C. 70% RH for one and two days, respectively. The four samples were analyzed by XRPD (FIG. 12 and FIG. 13).

[3] = Form stability: dry ethanol slurry at 30° C., XRPD; format: physicochemical; conditions: Slurry in dry ethanol at 30° C., overnight
Procedure: A small portion of Form 1 (˜50 mg) and a small portion of Form 2 (˜50 mg) were prepared in scintillation vials and equal volumes of sieve dried ethanol was added, the slurries were conditioned overnight in a shaker at 30° C. The wet slurries were analyzed by XRPD (FIG. 14).

[4] = Form stability: water-acetone and water-ethanol wash, then 40° C. drying, XRPD; format: physicochemical; conditions: overnight
Procedure: Two small portions of Form 2 (˜100 mg each) were prepared in sample vials. The first one was slurried in water briefly followed by filtration and acetone wash. The second one was slurried in water briefly, filtered and washed with ethanol. Both samples were then oven dried at 40° C. overnight and analyzed by XRPD (FIG. 11).

HIV = conditions: cited from earlier work
[5] = cited from earlier work
[6] = cited from earlier work; remark: listed apart in the source
[7] = dose levels 6 to 700 mg/m(2)/day
[8] = patients, 500 mg/m(2)/day, 5-day continuous i.v. infusion

Compound: Nc1nc(=O)n([C@@H]2CS[C@H](CO)O2)cc1F [COVIRACIL, emtricitabine]
- greater activity in vitro than lamivudine (3TC) (HIV; in vitro): 3-to 10 fold

Compound: CC(C)[C@@H](CC[C@@H](C)[C@H]1CC[C@H]2[C@@H]3[C@H](O)C[C@H]4C[C@@H](NCCCNCCCCN)CC[C@]4(C)[C@H]3CC[C@]12C)OS(=O)(=O)O [squalamine, 3 beta-N-1-(N-[3-(4-aminobutyl)]-1,3-diaminopropane)-7 alpha,24 zeta-dihydroxy-5 alpha-cholestane 24-sulfate]
- dose-limiting toxicity ([5]; 500 mg/m(2)/day): one of seven patients experienced dose-limiting grade 4 hyperbilirubinemia and grade 3 neurosensory changes
- tolerability ([5]; 500 mg/m(2)/day): well tolerated
- dose-limiting toxicity ([5]; 700 mg/m(2)/day): two of three patients developed grade 4 hyperbilirubinemia
- pharmacokinetics versus dose [5, 7]: dose-proportional
- principal dose-limiting toxicity [5, 7]: Hepatotoxicity
- clearance, mean (percentage coefficient of variation) [5, 8]: 2.67 liters/h/m(2)
- half-life, mean (percentage coefficient of variation) [5, 8]: 9.46 h
- steady-state concentrations, mean (percentage coefficient of variation) [5, 8]: 20.08 micro g/ml
- volume of distribution, mean (percentage coefficient of variation) [5, 8]: 36.84 liters/m(2)
- dose-limiting toxicity (grade 3/4 arthralgia, myalgia, neutropenia) ([6]; 400 mg/m(2)/day with paclitaxel and carboplatin): two of three patients
- dose selected as the Phase II dose on the basis of safety and toxicity ([6]; combination regimen with paclitaxel and carboplatin): 300 mg/m(2)/day
- tolerability of the combination ([6]; continuously daily for 5 days, with paclitaxel and carboplatin on day 1): well tolerated

Compound: CC[C@H]1C(=O)Nc2ccc(F)cc2N1C(=O)OC(C)C [GW420867X]
- greater activity than HBY097 (HIV): 25 fold

Compound: C[C@H](Sc1nc(N)cc(Cl)n1)c1cc2ccoc2cn1 [PNU-142721]
- greater activity than its predecessor delavirdine (HIV): 20- to 50 fold

The next lines start with results.

- Final Form by XRPD ([1]; Aw 0.000, water volume fraction 0.000, three days): Form 1
- Final Form by XRPD ([1]; Aw 0.099, water volume fraction 0.013, three days): Form 1
- Final Form by XRPD ([1]; Aw 0.205, water volume fraction 0.030, three days): Form 1
- Final Form by XRPD ([1]; Aw 0.298, water volume fraction 0.048, three days): Form 1
- Final Form by XRPD ([1]; Aw 0.398, water volume fraction 0.073, three days): Form 1 + Form 2
- Final Form by XRPD ([1]; Aw 0.502, water volume fraction 0.104, three days): Form 1 + Form 2
- Final Form by XRPD ([1]; Aw 0.700, water volume fraction 0.198, three days): Form 2
- Final Form by XRPD ([1]; Aw 0.802, water volume fraction 0.296, three days): Form 2
- Final Form by XRPD ([1]; Aw 0.900, water volume fraction 0.550, three days): Form 2
Compound: squalamine phosphate [Form 1 + Form 2]

- Water activity levels in ethanol at which the form is the stable form [1]: ≥ 0.6 Aw
- Form after slurry conditioning, by XRPD ([1]; slurries in Ethanol at water activity levels of 0.1 to 0.3 at 25° C., three days): converted to Form 1
- Form after slurry conditioning, by XRPD ([1]; slurries in Ethanol at water activity levels of 0.4 to 0.9 at 25° C., three days): stayed the same Form 2
- Final Form by XRPD [3]: converted to Form 1
Compound: squalamine phosphate [Form 2]
- Final Form by XRPD ([2]; 27% RH, overnight (one day)): Form 1 was also obtained; also recorded: converted to Form 1
- Final Form by XRPD ([2]; 70% RH, two nights): remained the same as their respective starting forms; also recorded: Form 2
- Final Form by XRPD ([4]; Water-acetone wash + 40° C. dry): generates Form 1; also recorded: converted to Form 1
- Final Form by XRPD ([4]; Water-ethanol wash + 40° C. dry): generates Form 1; also recorded: converted to Form 1

- Water activity levels in ethanol at which the form is the stable form [1]: ≤ 0.5 Aw
- Form after slurry conditioning, by XRPD ([1]; slurries in Ethanol at water activity levels of 0.1 to 0.6 at 25° C., three days): stayed the same Form
- Form after slurry conditioning, by XRPD ([1]; slurries in Ethanol at water activity levels of 0.7 to 0.9 at 25° C., three days): converted to Form 2
- Final Form by XRPD [3]: Form 1
Compound: squalamine phosphate [Form 1]
- Final Form by XRPD ([2]; 27% RH, overnight (one day)): remained the same form; also recorded: Form 1
- Final Form by XRPD ([2]; 70% RH, two nights): remained the same as their respective starting forms; also recorded: Form 1

- Final Form by XRPD ([1]; mixed forms, Aw 0.099, water volume fraction 0.013, seven days): Form 1
- Final Form by XRPD ([1]; mixed forms, Aw 0.205, water volume fraction 0.030, seven days): Form 1
- Final Form by XRPD ([1]; mixed forms, Aw 0.298, water volume fraction 0.048, seven days): Form 1
- Final Form by XRPD ([1]; mixed forms, Aw 0.398, water volume fraction 0.073, seven days): Form 1
- Final Form by XRPD ([1]; mixed forms, Aw 0.502, water volume fraction 0.104, seven days): Form 1
- Final Form by XRPD ([1]; mixed forms, Aw 0.605 (0.6), water volume fraction 0.145, seven days): Form 2
- Final Form by XRPD ([1]; mixed forms, Aw 0.605 (0.6), water volume fraction 0.145, seven days, listed as Form 1 and 2): converted to Form 2
- Form after slurry conditioning, by XRPD ([1]; mixed slurries in Ethanol at water activity levels of 0.1 to 0.5 Aw at 25° C., seven days): converted to Form 1
Compound: squalamine phosphate [Form 1 + 2]
